Assay results published in publication PMC4492759, “Pharmacological profiling of the hemodynamic effects of cannabinoid ligands: a combined in vitro and in vivo approach” (Pharmacology Research & Perspectives, 2015).
Like-named read-outs stand apart in the source and are kept apart here.

Columns and labels:
[1] = test system: anesthetized Sprague–Dawley (SD) rats; test: Hemodynamic responses (MABP, HR) in anesthetized normotensive rats; assay type: in vivo, rat
Method: (§1) All experiments performed under terminal anesthesia were carried out following approval by Robert Gordon University Animal Ethics Panel. Anesthesia was induced in male SD rats (200–300 g) by sodium pentobarbital [60 mg kg^−1 intraperitoneal (i.p.) injection]. Male/female WT and GPR55^−/− mice (25–35 g) were anesthetized with a mixture of ketamine (120 mg kg^−1) and xylazine (16 mg kg^−1) via i.p. injection. For both species the trachea was cannulated to allow artificial respiration with room air when required (54 strokes min^−1 and tidal volume 1.5 mL 100 g^−1 for rats; 120 strokes min^−1 and tidal volume 100 μL 10 g^−1 for mice) and the left carotid artery and right jugular vein were cannulated for the measurement of arterial BP (MLT844 Physiological Pressure Transducer; AD Instruments, Oxford, UK) and drug administration, respectively. Core temperature was monitored continuously and maintained at 37–38°C with the aid of a Vetcare heated pad (Harvard Apparatus Ltd., Boston, Massachusetts, USA). Anesthesia was monitored by foot pinch reflex and maintained throughout by administration of additional doses of anesthetic (rats: 3–4 mg kg^−1 of sodium pentobarbital salt i.v.; mice: 50 μL 25 g^−1of ketamine/xylazine i.p.) every 40 min, or as required. […] Heart rate (HR) was calculated from the ECG and recorded throughout the entire experimental period. After a stabilization period of approximately 15 min dose–response experiments were carried out as described below.
(§2) As a preliminary assessment of the effects of ACEA on arterial BP, a single bolus intravenous dose (3 mg kg^−1; selected from the literature as a dose known to produce a depressor response) was given to anesthetized rats. […] The time interval between drug administrations was 10–15 min to allow BP values to return to predrug values.

[2] = test system: anesthetized WT and GPR55−/− mice; test: Hemodynamic responses (MABP, HR) in anesthetized WT and GPR55−/− mice; assay type: in vivo, mouse
Method: as §1, §2

mouse GPR55 = target: T1, mouse GPR55 (Mus musculus, UniProt Q3UJF0); test: [35S]-GTPγS binding, membranes of HEK293s cells transfected with mouse GPR55; assay type: biochemical; settings: mean ± SEM
T1 construct: expressed in transfected cells; host or cells: HEK293s, transient transfection; membranes prepared
T1 sequence (Q3UJF0 whole entry): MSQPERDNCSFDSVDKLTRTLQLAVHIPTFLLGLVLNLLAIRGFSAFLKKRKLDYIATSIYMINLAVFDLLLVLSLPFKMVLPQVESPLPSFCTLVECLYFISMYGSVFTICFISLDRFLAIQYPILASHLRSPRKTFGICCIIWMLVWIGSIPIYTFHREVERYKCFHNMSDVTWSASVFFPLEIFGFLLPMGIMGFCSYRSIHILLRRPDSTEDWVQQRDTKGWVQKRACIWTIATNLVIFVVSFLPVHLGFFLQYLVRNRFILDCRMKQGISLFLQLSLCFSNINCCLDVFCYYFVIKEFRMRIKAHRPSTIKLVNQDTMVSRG
Method: (§3) HEK293s cells were transiently transfected with cDNA encoding rat or mouse CB1 or GPR55 and membranes were prepared as previously described (Ryberg et al. [2007]). In short, agonist activities in [^35S]-GTPγS binding assays were determined by the addition of ligand at 30°C for 45 min in membrane buffer [50 mmol/L NaCl, 5 mmol/L MgCl2, 0.5 mmol/L EDTA, 25 mmol/L HEPES (all Sigma, Gillingham, Dorset, UK); pH 7.4] containing 0.05 μg μL^−1 of membrane protein with 0.01% BSA, 25 μmol/L guanosine 5′-diphosphate (GDP), 100 μmol/L dithiothreitol (DTT), and 0.53 nmol/L [^35S]GTPγS (PerkinElmer) in a final volume of 200 μL. Antagonist assays were performed similarly, with the addition of an EC80 concentration of CP55940 as a nonselective CB1/CB2 agonist in conjunction with the ligand to be tested. Nonspecific binding was determined in the presence of 20 μmol/L unlabeled GTPγS. The reaction was terminated by addition of ice-cold wash buffer (50 mmol/L Tris-HCl, 5 mmol/L MgCl2, 50 mmol/L NaCl; pH 7.4) followed by rapid filtration under vacuum through 96-well B-glass fiber filter plates (PerkinElmer, Waltham, Massachusetts, USA) using a Biomek FX (Beckman Coulter, Bromma, Sweden). The filter plates were dried (30 min at 50°C) before scintillation liquid (PerkinElmer) was added onto the filters and the bound radioactivity was determined using a scintillation counter (Wallac). Data were fitted with a four-parameter logistic fit using the equation y = A + (B − A)/1 + ((C/x)^D), where A is no activation, B is full activation, C is the EC50, and D is the Hill slope. All data were based on at least three independent experiments.

rat GPR55 = target: T2, rat GPR55 (Rattus norvegicus, UniProt F1MAK4); test: [35S]-GTPγS binding, membranes of HEK293s cells transfected with rat GPR55; assay type: biochemical
T2 construct: expressed in transfected cells; host or cells: HEK293s, transient transfection; membranes prepared
T2 sequence (F1MAK4 1-319): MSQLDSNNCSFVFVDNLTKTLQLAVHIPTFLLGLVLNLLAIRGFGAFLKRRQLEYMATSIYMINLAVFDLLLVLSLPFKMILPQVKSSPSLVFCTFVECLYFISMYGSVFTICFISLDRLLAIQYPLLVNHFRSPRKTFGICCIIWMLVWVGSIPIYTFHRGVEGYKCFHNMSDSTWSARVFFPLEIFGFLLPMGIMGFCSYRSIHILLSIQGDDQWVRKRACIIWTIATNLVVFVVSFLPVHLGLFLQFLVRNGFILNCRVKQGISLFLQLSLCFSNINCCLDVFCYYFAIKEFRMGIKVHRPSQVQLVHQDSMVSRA
Method: as §3

mouse CB1 = target: T3, mouse CB1 (Mus musculus, UniProt P47746); test: [35S]-GTPγS binding, membranes of HEK293s cells transfected with mouse CB1; assay type: biochemical; settings: mean ± SEM
T3 construct: expressed in transfected cells; host or cells: HEK293s, transient transfection; membranes prepared
T3 sequence (P47746 whole entry): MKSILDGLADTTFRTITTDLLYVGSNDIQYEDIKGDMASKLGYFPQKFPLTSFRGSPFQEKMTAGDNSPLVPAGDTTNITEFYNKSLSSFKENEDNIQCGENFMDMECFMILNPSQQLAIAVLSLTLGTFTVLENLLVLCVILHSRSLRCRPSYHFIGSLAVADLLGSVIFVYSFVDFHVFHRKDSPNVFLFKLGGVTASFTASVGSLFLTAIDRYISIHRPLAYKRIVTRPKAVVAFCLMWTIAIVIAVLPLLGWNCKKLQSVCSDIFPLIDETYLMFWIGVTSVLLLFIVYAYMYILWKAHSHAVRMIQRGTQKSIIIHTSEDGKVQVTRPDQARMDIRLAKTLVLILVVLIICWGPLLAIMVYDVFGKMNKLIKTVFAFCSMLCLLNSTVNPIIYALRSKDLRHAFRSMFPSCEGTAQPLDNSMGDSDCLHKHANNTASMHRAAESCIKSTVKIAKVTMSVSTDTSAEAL
Method: (§4) Antagonist assays were performed similarly, with the addition of an EC80 concentration of CP55940 as a nonselective CB1/CB2 agonist in conjunction with the ligand to be tested. Nonspecific binding was determined in the presence of 20 μmol/L unlabeled GTPγS. The reaction was terminated by addition of ice-cold wash buffer (50 mmol/L Tris-HCl, 5 mmol/L MgCl2, 50 mmol/L NaCl; pH 7.4) followed by rapid filtration under vacuum through 96-well B-glass fiber filter plates (PerkinElmer, Waltham, Massachusetts, USA) using a Biomek FX (Beckman Coulter, Bromma, Sweden). The filter plates were dried (30 min at 50°C) before scintillation liquid (PerkinElmer) was added onto the filters and the bound radioactivity was determined using a scintillation counter (Wallac). Data were fitted with a four-parameter logistic fit using the equation y = A + (B − A)/1 + ((C/x)^D), where A is no activation, B is full activation, C is the EC50, and D is the Hill slope. All data were based on at least three independent experiments.

rat CB1 = target: T4, rat CB1 (Rattus norvegicus, UniProt P20272); test: [35S]-GTPγS binding, membranes of HEK293s cells transfected with rat CB1; assay type: biochemical; settings: for EC50: mean ± SEM
T4 construct: expressed in transfected cells; host or cells: HEK293s, transient transfection; membranes prepared
T4 sequence (P20272 whole entry): as the sequence (P47746 whole entry) above, with D95E counted along it
Method: as §4

[3] = Blood concentration estimated from dose and blood volume; settings: ACEA 3 mg kg−1; assuming total blood volume ∼20 mL in a 300 g rat
Excerpt: Therefore, in an attempt to determine whether GPR55 plays a role in the depressor response to ACEA we studied the hemodynamic responses in anesthetized WT and GPR55^−/− mice.

[4] = test system: conscious WT, CB1−/− and GPR55−/− mice; test: Blood pressure and heart rate responses in conscious mice (WT, CB1−/−, GPR55−/−); settings: metoprolol (10 mg kg−1 i.v.); conscious GPR55−/− mice
[5] = agonist mode, at least three experiments, read-out: GPR55 EC50, Mouse
[6] = antagonist mode, vs EC80 concentration of CP55940, read-out: CB1 EC50, Mouse (ligand behaved as an antagonist)
[7] = agonist mode, at least three experiments, read-out: CB1 EC50, Mouse

For `Cc1c(C(=O)NN2CCCCC2)nn(-c2ccc(Cl)cc2Cl)c1-c1ccc(I)cc1` [AM251, 1-(2,4-dichlorophenyl)-5-(4-iodophenyl)-4-methyl-N-(piperidin-1-yl)-1H-pyrazole-3-carboxamide], the “effect on magnitude and duration of the depressor response to ACEA” value ([1]; AM251 1 and 3 mg kg−1, ACEA 3 mg kg−1, dose-dependent, P < 0.01) was “attenuated”, the “depressor response in the presence of CBD” value ([2]; AM251 (1 and 3 mg kg−1) with CBD (50 μg kg−1), mice) was “augmented” and the EC50 (mouse GPR55; [5]) was 68 ± 3 nM. The EC50 (rat GPR55) was 74 ± 3 nM, the EC50 (mouse CB1; [6]) was 13 ± 2 nM and the “higher potency for CB1 (antagonist) than GPR55 (agonist)” value (rat CB1; GTPγS binding, rat and mouse) was “three to five”.

With `CCCCC/C=C\C/C=C\C/C=C\C/C=C\CCCC(=O)NCCCl` [ACEA, arachidonyl-2′-chloroethylamide] the “effect on HR” value ([1]; ACEA single bolus 3 mg kg−1 i.v.) was “no effect”, the “blood pressure (MABP) response” value ([1]; ACEA single bolus 3 mg kg−1 i.v., P < 0.001) was “reproducible and pronounced depressor response” and the “effect on HR” value ([2]; ACEA 3 mg kg−1, WT and GPR55−/− mice) was “nor was there any measurable effect”. For the same compound, the “depressor response distinguishable from vehicle” value ([2]; ACEA 3 mg kg−1, either WT or GPR55−/− mice) was “did not produce a depressor response”, the EC50 (mouse GPR55; [5]) was 62 ± 3 nM and the EC50 (rat GPR55; agonist mode, mean ± SEM, at least three experiments, read-out: GPR55 EC50, Rat) was 78 ± 4 nM. For the same compound, the EC50 (mouse CB1; [7]) was 3 ± 0.5 nM, the “higher affinity for CB1 as compared to GPR55” value (rat CB1; GTPγS binding, both mouse and rat) was “approximately 10 fold” and the EC50 (rat CB1; agonist mode, at least three experiments, read-out: CB1 EC50, Rat) was 7 ± 1 nM. For the same compound, the “expected total (not necessarily free) blood concentration” value [3] was 100 to 120 nmol/L.

With `Cc1c(C(=O)NN2CCOCC2)nn(-c2ccc(Cl)cc2Cl)c1-c1ccc(I)cc1` [AM281, 1-(2,4-dichlorophenyl)-5-(4-iodophenyl)-4-methyl-N-4-morpholinyl-1H-pyrazole-3-carboxamide] the EC50 (mouse GPR55; [5]) was > 30000 nM, the EC50 (rat GPR55) was > 30000 nM and the EC50 (mouse CB1; [6]) was 8 ± 1 nM. It also gave an EC50 (rat CB1; antagonist mode, vs EC80 concentration of CP55940, read-out: CB1 EC50, Rat (ligand behaved as an antagonist)) of 13 ± 4 nM.

In the case of `CCCCC/C=C\C/C=C\C/C=C\C/C=C\CCCC(=O)NCCO` [AEA, anandamide], the EC50 (mouse GPR55; [5]) is reported as 38 ± 3 nM and the EC50 (rat GPR55) is reported as 24 ± 3 nM.

With `COCCc1ccc(OCC(O)CNC(C)C)cc1` (stereo not drawn) [metoprolol] the “effect on HR” value [4] was “profound and long-lasting bradycardia”.

With `C=C(C)[C@@H]1CCC(C)=C[C@H]1c1c(O)cc(CCCCC)cc1O` [CBD, cannabidiol] the “effect on HR” value ([1]; CBD 50 μg kg−1, any experiments (rats and mice), data not shown) was “unaffected”, the “reduction of AAC value of the depressor response to ACEA” value ([1]; CBD alone 50 μg kg−1, ACEA 3 mg kg−1, P < 0.05) was “approximately 50%” and the blood pressure response ([1]; CBD alone 50 μg kg−1 single bolus, P < 0.05) was “small but measurable and statistically significant depressor response”. The blood pressure response ([2]; CBD alone 50 μg kg−1, WT and GPR55−/− mice) was “depressor responses of a similar magnitude”, the EC50 (mouse GPR55; antagonist mode, vs EC80 concentration of CP55940, read-out: GPR55 EC50, Mouse (ligand behaved as an antagonist)) was 780 ± 8 nM and the EC50 (rat GPR55) was 624 ± 13 nM. For the same compound, the EC50 (mouse CB1; [7]) was > 30000 nM.
